Assay results as given in ChEMBL document CHEMBL4715829, “Heterodimeric Rifampicin-Tobramycin conjugates break intrinsic resistance of Pseudomonas aeruginosa to doxycycline and chloramphenicol in vitro and in a Galleria mellonella in vivo model” (Eur J Med Chem, 2019).

Assays:
Type in all cases: functional
Staphylococcus aureus = test: Antibacterial activity against methicillin-resistance Staphylococcus aureus ATCC 33592 assessed as reduction in bacterial growth incubated for 18 hrs by broth microdilution assay
Enterococcus faecalis = test: Antibacterial activity against Enterococcus faecalis ATCC 29212 assessed as reduction in bacterial growth incubated for 18 hrs by broth microdilution assay
Streptococcus pneumoniae = test: Antibacterial activity against Streptococcus pneumoniae ATCC 49619 assessed as reduction in bacterial growth incubated for 18 hrs by broth microdilution assay
Escherichia coli = test: Antibacterial activity against Escherichia coli CAN-ICU 63074 (AMK 32) assessed as reduction in bacterial growth incubated for 18 hrs by broth microdilution assay
Pseudomonas aeruginosa [1] = test: Antibacterial activity against gentamicin-resistant Pseudomonas aeruginosa CAN-ICU 62308 assessed as reduction in bacterial growth incubated for 18 hrs by broth microdilution assay
Acinetobacter baumannii = test: Antibacterial activity against Acinetobacter baumannii CAN-ICU 63169 assessed as reduction in bacterial growth incubated for 18 hrs by broth microdilution assay
Pseudomonas aeruginosa [2] = test: Antibacterial activity against Pseudomonas aeruginosa PAO1 assessed as reduction in bacterial growth by measuring rifampicin MIC at <=[…] uM in presence of rifampicin incubated for 18 hrs by broth microdilution assay based checkerboard assay (reference value: […] microg/ml); conditions: dose microM <=10
Pseudomonas aeruginosa [3] = test: Antibacterial activity against Pseudomonas aeruginosa PAO1 assessed as reduction in bacterial growth by measuring minocycline MIC at <=10 uM in presence of minocycline incubated for 18 hrs by broth microdilution assay based checkerboard assay (reference value: 8 microg/ml); conditions: dose microM <=10
Pseudomonas aeruginosa [4] = test: Antibacterial activity against Pseudomonas aeruginosa PAO1 assessed as reduction in bacterial growth by measuring moxifloxacin MIC at <=10 uM in presence of moxifloxacin incubated for 18 hrs by broth microdilution assay based checkerboard assay (reference value: 1 microg/ml); conditions: dose microM <=10
Pseudomonas aeruginosa [5] = test: Antibacterial activity against Pseudomonas aeruginosa PAO1 assessed as reduction in bacterial growth by measuring trimethoprim MIC at <=10 uM in presence of trimethoprim incubated for 18 hrs by broth microdilution assay based checkerboard assay (reference value: 64 microg/ml); conditions: dose microM <=10
Pseudomonas aeruginosa [6] = test: Antibacterial activity against Pseudomonas aeruginosa PAO1 assessed as reduction in bacterial growth by measuring vancomycin MIC at <=10 uM in presence of vancomycin incubated for 18 hrs by broth microdilution assay based checkerboard assay (reference value: 256 microg/ml); conditions: dose microM <=10
Pseudomonas aeruginosa [7] = test: Antibacterial activity against Pseudomonas aeruginosa PAO1 assessed as reduction in bacterial growth by measuring ceftazidime MIC at <=10 uM in presence of ceftazidime incubated for 18 hrs by broth microdilution assay based checkerboard assay (reference value: 2 microg/ml); conditions: dose microM <=10
Pseudomonas aeruginosa [8] = test: Antibacterial activity against Pseudomonas aeruginosa PAO1 assessed as reduction in bacterial growth by measuring pleuromutilin MIC at <=10 uM in presence of pleuromutilin incubated for 18 hrs by broth microdilution assay based checkerboard assay (reference value: 512 microg/ml); conditions: dose microM <=10
Pseudomonas aeruginosa [9] = test: Antibacterial activity against Pseudomonas aeruginosa PAO1 assessed as reduction in bacterial growth by measuring novobiocin MIC at <=10 uM in presence of novobiocin incubated for 18 hrs by broth microdilution assay based checkerboard assay (reference value: 512 microg/ml); conditions: dose microM <=10
Pseudomonas aeruginosa [10] = test: Antibacterial activity against Pseudomonas aeruginosa PAO1 assessed as reduction in bacterial growth by measuring colistin MIC at <=10 uM in presence of colistin incubated for 18 hrs by broth microdilution assay based checkerboard assay (reference value: 1 microg/ml); conditions: dose microM <=10
Pseudomonas aeruginosa [11] = test: Antibacterial activity against Pseudomonas aeruginosa PAO1 assessed as fractional inhibitory concentration index in presence of Tobramycin incubated for 18 hrs by broth microdilution assay based checkerboard assay
Pseudomonas aeruginosa [12] = test: Antibacterial activity against Pseudomonas aeruginosa PAO1 assessed as fractional inhibitory concentration index in presence of Minocycline incubated for 18 hrs by broth microdilution assay based checkerboard assay
Pseudomonas aeruginosa [13] = test: Antibacterial activity against Pseudomonas aeruginosa PAO1 assessed as fractional inhibitory concentration index in presence of Doxycycline incubated for 18 hrs by broth microdilution assay based checkerboard assay
Pseudomonas aeruginosa [14] = test: Antibacterial activity against Pseudomonas aeruginosa PAO1 assessed as fractional inhibitory concentration index in presence of Tigecycline incubated for 18 hrs by broth microdilution assay based checkerboard assay
Pseudomonas aeruginosa [15] = test: Antibacterial activity against Pseudomonas aeruginosa PAO1 assessed as fractional inhibitory concentration index in presence of Meropenem incubated for 18 hrs by broth microdilution assay based checkerboard assay
Pseudomonas aeruginosa [16] = test: Antibacterial activity against Pseudomonas aeruginosa PAO1 assessed as fractional inhibitory concentration index in presence of Vancomycin incubated for 18 hrs by broth microdilution assay based checkerboard assay
Pseudomonas aeruginosa [17] = test: Antibacterial activity against Pseudomonas aeruginosa PAO1 assessed as fractional inhibitory concentration index in presence of Fosfomycin incubated for 18 hrs by broth microdilution assay based checkerboard assay
Pseudomonas aeruginosa [18] = test: Antibacterial activity against Pseudomonas aeruginosa PAO1 assessed as fractional inhibitory concentration index in presence of Chloramphenicol incubated for 18 hrs by broth microdilution assay based checkerboard assay
Pseudomonas aeruginosa [19] = test: Antibacterial activity against Pseudomonas aeruginosa PAO1 assessed as fractional inhibitory concentration index in presence of Colistin incubated for 18 hrs by broth microdilution assay based checkerboard assay
Pseudomonas aeruginosa [20] = test: Antibacterial activity against Pseudomonas aeruginosa 100036 assessed as fractional inhibitory concentration index in presence of doxycycline incubated for 18 hrs by broth microdilution assay
Pseudomonas aeruginosa [21] = test: Antibacterial activity against Pseudomonas aeruginosa 264-101354 assessed as fractional inhibitory concentration index in presence of doxycycline incubated for 18 hrs by broth microdilution assay
Pseudomonas aeruginosa [22] = test: Antibacterial activity against Pseudomonas aeruginosa 264-101354 assessed as fractional inhibitory concentration index in presence of chloramphenicol incubated for 18 hrs by broth microdilution assay
Pseudomonas aeruginosa [23] = test: Antibacterial activity against Pseudomonas aeruginosa 101243 assessed as fractional inhibitory concentration index in presence of doxycycline incubated for 18 hrs by broth microdilution assay
Pseudomonas aeruginosa [24] = test: Antibacterial activity against Pseudomonas aeruginosa 262-101856 assessed as fractional inhibitory concentration index in presence of doxycycline incubated for 18 hrs by broth microdilution assay
Pseudomonas aeruginosa [25] = test: Antibacterial activity against Pseudomonas aeruginosa 260-97103 assessed as fractional inhibitory concentration index in presence of doxycycline incubated for 18 hrs by broth microdilution assay
Pseudomonas aeruginosa [26] = test: Antibacterial activity against Pseudomonas aeruginosa 100036 assessed as reduction in bacterial growth incubated for 18 hrs by broth microdilution assay
Pseudomonas aeruginosa [27] = test: Antibacterial activity against Pseudomonas aeruginosa 259-96918 assessed as reduction in bacterial growth incubated for 18 hrs by broth microdilution assay
Pseudomonas aeruginosa [28] = test: Antibacterial activity against Pseudomonas aeruginosa 260-97103 assessed as reduction in bacterial growth incubated for 18 hrs by broth microdilution assay
Pseudomonas aeruginosa [29] = test: Antibacterial activity against Pseudomonas aeruginosa 91433 assessed as reduction in bacterial growth incubated for 18 hrs by broth microdilution assay
Pseudomonas aeruginosa [30] = test: Antibacterial activity against Pseudomonas aeruginosa 101243 assessed as reduction in bacterial growth incubated for 18 hrs by broth microdilution assay
Pseudomonas aeruginosa [31] = test: Antibacterial activity against Pseudomonas aeruginosa 114228 assessed as reduction in bacterial growth incubated for 18 hrs by broth microdilution assay

## CO[C@H]1/C=C/O[C@@]2(C)Oc3c(C)c(O)c4c(O)c(c(/C=N/N5CCN(Cc6cn(CCCCCCCCCCCCO[C@@H]7[C@@H](O[C@H]8O[C@H](CO)[C@@H](O)[C@H](N)[C@H]8O)[C@H](N)C[C@H](N)[C@H]7O[C@H]7O[C@H](CN)[C@@H](O)C[C@H]7N)nn6)CC5)c(O)c4c3C2=O)NC(=O)/C(C)=C\C=C\[C@H](C)[C@H](O)[C@@H](C)[C@@H](O)[C@@H](C)[C@H](OC(C)=O)[C@@H]1C.O=C(O)C(F)(F)F.O=C(O)C(F)(F)F.O=C(O)C(F)(F)F.O=C(O)C(F)(F)F.O=C(O)C(F)(F)F
Staphylococcus aureus
  MIC: > 32 µg/mL
Enterococcus faecalis
  MIC: > 32 µg/mL
Streptococcus pneumoniae
  MIC: 8 µg/mL
Escherichia coli
  MIC: 32 µg/mL
Pseudomonas aeruginosa [1]
  MIC: > 32 µg/mL
Acinetobacter baumannii
  MIC: > 32 µg/mL
Pseudomonas aeruginosa [2]
  MIC: 2 µg/mL
Pseudomonas aeruginosa [3]
  MIC: 2 µg/mL
Pseudomonas aeruginosa [4]
  MIC: 1 µg/mL
Pseudomonas aeruginosa [5]
  MIC: 16 µg/mL
Pseudomonas aeruginosa [6]
  MIC: 128 µg/mL
Pseudomonas aeruginosa [7]
  MIC: 2 µg/mL
Pseudomonas aeruginosa [8]
  MIC: 256 µg/mL
Pseudomonas aeruginosa [9]
  MIC: 128 µg/mL
Pseudomonas aeruginosa [10]
  MIC: 0.25 µg/mL
Pseudomonas aeruginosa [11]
  fractional inhibitory concentration index (FICI): 1.03
Pseudomonas aeruginosa [12]
  fractional inhibitory concentration index (FICI): 0.28
Pseudomonas aeruginosa [13]
  fractional inhibitory concentration index (FICI): 0.09
Pseudomonas aeruginosa [14]
  fractional inhibitory concentration index (FICI): 0.51
Pseudomonas aeruginosa [15]
  fractional inhibitory concentration index (FICI): 1.03
Pseudomonas aeruginosa [16]
  fractional inhibitory concentration index (FICI): 0.53
Pseudomonas aeruginosa [17]
  fractional inhibitory concentration index (FICI): 0.28
Pseudomonas aeruginosa [18]
  fractional inhibitory concentration index (FICI): 0.09
Pseudomonas aeruginosa [19]
  fractional inhibitory concentration index (FICI): 0.26
Pseudomonas aeruginosa [20]
  fractional inhibitory concentration index (FICI): 0.07
Pseudomonas aeruginosa [21]
  fractional inhibitory concentration index (FICI): 0.078
Pseudomonas aeruginosa [22]
  fractional inhibitory concentration index (FICI): 0.063
Pseudomonas aeruginosa [23]
  fractional inhibitory concentration index (FICI): 0.094
Pseudomonas aeruginosa [24]
  fractional inhibitory concentration index (FICI): <0.07
Pseudomonas aeruginosa [25]
  fractional inhibitory concentration index (FICI): <0.133
Pseudomonas aeruginosa [26]
  MIC: 256 µg/mL
Pseudomonas aeruginosa [27]
  MIC: > 128 µg/mL
Pseudomonas aeruginosa [28]
  MIC: > 128 µg/mL
Pseudomonas aeruginosa [29]
  MIC: > 128 µg/mL
Pseudomonas aeruginosa [30]
  MIC: 256 µg/mL
Pseudomonas aeruginosa [31]
  MIC: > 128 µg/mL
